This passage reports IC50 results from patent US20260258084A1, “New Peptides as Selective IL-23 Receptor Antagonists” (Sanofi, priority 2022, published 2026).

Structures are written as SMILES. pIC50: −log10 of the molar value. Starred links: 1 amine or outer side, 2 acyl side, 3 side chain; linkers in the order of their positions; H or OH if unused. Positions of bridges follow the written chain, without caps; N, C: chain ends. Non-standard residues stand in square brackets, D forms with d. Residues, ends and D or L forms follow the SMILES beside them. *: point of attachment. X3 = CN(CCCCC(=O)N[C@@H](CS[*:2])C(=O)[*:1])[*:3]; Trp(7-Me) = Cc1cccc2c(C[C@H](N)C(=O)O)c[nH]c12; X1 = O=C(CCCCN[*:3])N[C@@H](CS[*:2])C(=O)[*:1]; 2Nal = N[C@@H](Cc1ccc2ccccc2c1)C(=O)O; AEF = NCCOc1ccc(C[C@H](N)C(=O)O)cc1; 3Pal = N[C@@H](Cc1cccnc1)C(=O)O; αMeL = CC(C)C[C@](C)(N)C(=O)O; Suc = O=C(CCC(=O)[*:2])[*:1]; Thp = NC1(C(=O)O)CCOCC1; Me2NCH2CH2 = CN(C)CC*; Aib = CC(C)(N)C(=O)O; Ahx = NCCCCCC(=O)O; Ava = NCCCCC(=O)O; Sar = CNCC(=O)O

This test concerns IL-23 induced STAT3 signaling in HEK-Blue™ IL-23 cells. Nature of the test: IL-23 induced STAT3 signaling in HEK-Blue IL-23 cells (SEAP reporter). The format is cell-based. Particulars: human IL23 0.25 ng/ml, read-out: pSTAT3. The gist of the method: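 Secreted SEAP, read at OD 620-655 nm after 45 min QUANTI-Blue development, reports STAT3 activation. Beforehand, cells were exposed to peptide dilutions for 60 min at 37 °C and then to 0.25 ng/ml final human IL-23 overnight, at 10,000 cells/well.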
`COc1ccc(C[C@@H]2NC(=O)[C@@H]3CSSC[C@H](NC(=O)CCCCNC(=O)CC[C@@H](C(=O)N[C@@H](CC(N)=O)C(=O)NCC(N)=O)NC(=O)C(C)(C)NC(=O)[C@H](Cc4ccc5ccccc5c4)NC2=O)C(=O)N[C@@H](CC(N)=O)C(=O)N[C@@H]([C@@H](C)O)C(=O)N[C@@H](Cc2c[nH]c4ccccc24)C(=O)N[C@@H](CCC(N)=O)C(=O)N3)cc1` [compound 4] ([Ava]CNTWQCY(Me)[2Nal][Aib]ENG-NH2; disulfide 2-7; lactam N-11): the pIC50 is 7.46. Regarding `C[C@@H](O)[C@@H]1NC(=O)[C@H](CC(N)=O)NC(=O)[C@@H]2CSSC[C@H](NC(=O)[C@H](CCC(N)=O)NC(=O)[C@H](Cc3c[nH]c4ccccc34)NC1=O)C(=O)N[C@@H](Cc1ccc(OCCN)cc1)C(=O)N[C@@H](Cc1ccc3ccccc3c1)C(=O)NC(C)(C)C(=O)N[C@H](C(=O)N[C@@H](CC(N)=O)C(=O)NCC(N)=O)CC(=O)NCCCCCC(=O)N2` [compound 9] ([Ahx]CNTWQC[AEF][2Nal][Aib]DNG-NH2; disulfide 2-7; lactam N-11), the pIC50 is 7.19. With `CC(C)C[C@@H](NC(=O)[C@H](CC(N)=O)NC(=O)[C@@H]1CCC(=O)NCCCCC(=O)N[C@H]2CSSC[C@H](NC(=O)[C@H](CCC(N)=O)NC(=O)[C@H](Cc3c[nH]c4ccccc34)NC(=O)[C@H]([C@@H](C)O)NC(=O)[C@H](CC(N)=O)NC2=O)C(=O)N[C@@H](Cc2ccc(OCCN(C)C)cc2)C(=O)N[C@@H](Cc2ccc3ccccc3c2)C(=O)N[C@@](C)(CC(C)C)C(=O)N1)C(N)=O` [compound 10] ([Ava]CNTWQCY(Me2NCH2CH2)[2Nal][αMeL]EN[dL]-NH2; disulfide 2-7; lactam N-11) the figure was 7.59. The same measure for `COc1ccc(C[C@@H]2NC(=O)[C@@H]3CSSC[C@H](NC(=O)CCC(=O)NCCCC[C@@H](C(=O)N[C@@H](CC(N)=O)C(=O)N[C@@H](CC(N)=O)C(N)=O)NC(=O)C(C)(C)NC(=O)[C@H](Cc4ccc5ccccc5c4)NC2=O)C(=O)N[C@@H](CC(N)=O)C(=O)N[C@@H]([C@@H](C)O)C(=O)N[C@@H](Cc2c[nH]c4ccccc24)C(=O)N[C@@H](CCC(N)=O)C(=O)N3)cc1` [compound 11]: 7.27; for `CC(=O)N[C@H]1CCCCNC(=O)[C@@H]2CSSC[C@H](NC(=O)[C@H](CCC(N)=O)NC(=O)[C@H](Cc3c[nH]c4ccccc34)NC1=O)C(=O)N[C@@H](Cc1ccc(OCCN)cc1)C(=O)N[C@@H](Cc1ccc3ccccc3c1)C(=O)NC(C)(C)C(=O)N[C@H](C(=O)N[C@@H](CC(N)=O)C(=O)N[C@@H](CC(N)=O)C(N)=O)CCC(=O)N(C)CCCCC(=O)N2` [compound 12] (Ac-KWQC[AEF][2Nal][Aib]ENN-NH2; linker 1-4-8 via X3): 7.55; for `CC(=O)N[C@H]1CCCCNC(=O)[C@@H]2CSSC[C@H](NC(=O)[C@H](CCC(N)=O)NC(=O)[C@H](Cc3c[nH]c4ccccc34)NC1=O)C(=O)N[C@@H](Cc1ccc(OCCN)cc1)C(=O)N[C@@H](Cc1ccc3ccccc3c1)C(=O)NC1(CCOCC1)C(=O)N[C@H](C(=O)N[C@@H](CC(N)=O)C(=O)N[C@@H](CC(N)=O)C(N)=O)CCC(=O)N(C)CCCCC(=O)N2` [compound 13] (Ac-KWQC[AEF][2Nal][Thp]ENN-NH2; linker 1-4-8 via X3): 7.50. As for `CC(=O)N[C@H]1CCCCNC(=O)[C@@H]2CSSC[C@H](NC(=O)[C@H](CCC(N)=O)NC(=O)[C@H](Cc3c[nH]c4ccccc34)NC1=O)C(=O)N[C@@H](Cc1ccc(OCCN)cc1)C(=O)N[C@@H](Cc1ccc3ccccc3c1)C(=O)N[C@@](C)(CC(C)C)C(=O)N[C@H](C(=O)N[C@@H](CC(N)=O)C(=O)N[C@@H](CC(N)=O)C(N)=O)CCC(=O)N(C)CCCCC(=O)N2` [compound 14] (Ac-KWQC[AEF][2Nal][αMeL]ENN-NH2; linker 1-4-8 via X3), the pIC50 was 7.73. With `CC(=O)N[C@H]1CCCCNC(=O)[C@@H]2CSSC[C@H](NC(=O)[C@H](CCC(N)=O)NC(=O)[C@H](Cc3c[nH]c4ccccc34)NC1=O)C(=O)N[C@@H](Cc1ccc(OCCN)cc1)C(=O)N[C@@H](Cc1ccc3ccccc3c1)C(=O)NC(C)(C)C(=O)N[C@H](C(=O)N[C@@H](CC(N)=O)C(=O)NCC(N)=O)CCC(=O)N(C)CCCCC(=O)N2` [compound 15] (Ac-KWQC[AEF][2Nal][Aib]ENG-NH2; linker 1-4-8 via X3) the figure was 7.53; with `CC(=O)N[C@H]1CCCCNC(=O)[C@@H]2CSSC[C@H](NC(=O)[C@H](CCC(N)=O)NC(=O)[C@H](Cc3c[nH]c4ccccc34)NC1=O)C(=O)N[C@@H](Cc1ccc(OCCN)cc1)C(=O)N[C@@H](Cc1ccc3ccccc3c1)C(=O)NC1(CCOCC1)C(=O)N[C@H](C(=O)N[C@@H](CC(N)=O)C(=O)NCC(N)=O)CCC(=O)N(C)CCCCC(=O)N2` [compound 16] (Ac-KWQC[AEF][2Nal][Thp]ENG-NH2; linker 1-4-8 via X3), 7.49.

Turning to `CC(=O)N[C@H]1CCCCNC(=O)[C@@H]2CSSC[C@H](NC(=O)[C@H](CCC(N)=O)NC(=O)[C@H](Cc3c[nH]c4ccccc34)NC1=O)C(=O)N[C@@H](Cc1ccc(OCCN)cc1)C(=O)N[C@@H](Cc1ccc3ccccc3c1)C(=O)NC1(CCOCC1)C(=O)N[C@H](C(=O)N[C@@H](C)C(=O)NCC(N)=O)CCC(=O)N(C)CCCCC(=O)N2` [compound 17] (Ac-KWQC[AEF][2Nal][Thp]EAG-NH2; linker 1-4-8 via X3), the pIC50 is 7.21. With `CC(=O)N[C@H]1CCCCNC(=O)[C@@H]2CSSC[C@H](NC(=O)[C@H](CCC(N)=O)NC(=O)[C@H](Cc3c[nH]c4ccccc34)NC1=O)C(=O)N[C@@H](Cc1ccc(OCCN)cc1)C(=O)N[C@@H](Cc1ccc3ccccc3c1)C(=O)N[C@@](C)(CC(C)C)C(=O)N[C@H](C(=O)N[C@@H](C)C(=O)NCC(N)=O)CCC(=O)N(C)CCCCC(=O)N2` [compound 18] (Ac-KWQC[AEF][2Nal][αMeL]EAG-NH2; linker 1-4-8 via X3) the figure was 7.16. As to `CC(=O)N[C@H]1CCCCNC(=O)[C@@H]2CSSC[C@H](NC(=O)[C@H](CCC(N)=O)NC(=O)[C@H](Cc3c[nH]c4ccccc34)NC1=O)C(=O)N[C@@H](Cc1ccc(OCCN)cc1)C(=O)N[C@@H](Cc1ccc3ccccc3c1)C(=O)NC(C)(C)C(=O)N[C@H](C(=O)N[C@@H](C)C(=O)N[C@H](CC(C)C)C(N)=O)CCC(=O)N(C)CCCCC(=O)N2` [compound 19] (Ac-KWQC[AEF][2Nal][Aib]EA[dL]-NH2; linker 1-4-8 via X3), the pIC50 was 7.05. With `CC(=O)NCCCC[C@@H]1NC(=O)[C@H](Cc2c[nH]c3c(C)cccc23)NC(=O)[C@H]([C@@H](C)O)NC(=O)[C@H](CC(N)=O)NC(=O)[C@@H]2CSSC[C@H](NC1=O)C(=O)N[C@@H](Cc1ccc(OCCN(C)C)cc1)C(=O)N[C@@H](Cc1ccc3ccccc3c1)C(=O)N[C@@](C)(CC(C)C)C(=O)N[C@H](C(=O)N[C@@H](CC(N)=O)C(=O)N[C@@H](Cc1c[nH]cn1)C(N)=O)CCCCNC(=O)CCC(=O)N2` [compound 23] (CNT[Trp(7-Me)]K(Ac)CY(Me2NCH2CH2)[2Nal][αMeL]KNH-NH2; disulfide 1-6; linker N-10 via Suc) the figure was 8.48; with `Cc1cccc2c(C[C@@H]3NC(=O)[C@H]([C@@H](C)O)NC(=O)[C@H](CC(N)=O)NC(=O)[C@@H]4CSSC[C@H](NC(=O)[C@H](CC(C)C)NC3=O)C(=O)N[C@@H](Cc3ccc(OCCN(C)C)cc3)C(=O)N[C@@H](Cc3ccc5ccccc5c3)C(=O)NC3(CCOCC3)C(=O)N[C@H](C(=O)N[C@@H](CC(N)=O)C(=O)N[C@@H](Cc3cccnc3)C(=O)N(C)CC(N)=O)CCC(=O)NCCCCC(=O)N4)c[nH]c12` [compound 24] ([Ava]CNT[Trp(7-Me)]LCY(Me2NCH2CH2)[2Nal][Thp]EN[3Pal][Sar]-NH2; disulfide 2-7; lactam N-11), 9.23.

For the molecule `CC(C)C[C@]1(C)NC(=O)[C@H](Cc2ccc3ccccc3c2)NC(=O)[C@H](Cc2ccc(OCCN(C)C)cc2)NC(=O)[C@@H]2CSSC[C@H](NC(=O)CCCCNC(=O)CC[C@@H](C(=O)N[C@@H](CC(N)=O)C(=O)N[C@@H](CC(N)=O)C(N)=O)NC1=O)C(=O)N[C@@H](CC(N)=O)C(=O)N[C@@H]([C@@H](C)O)C(=O)N[C@@H](Cc1c[nH]c3ccccc13)C(=O)N[C@@H](CCC(N)=O)C(=O)N2` [compound 27] ([Ava]CNTWQCY(Me2NCH2CH2)[2Nal][αMeL]ENN-NH2; disulfide 2-7; lactam N-11), the pIC50 was 8.77. The same measure for `CC(=O)N[C@H]1CCCCNC(=O)[C@@H]2CSSC[C@H](NC(=O)[C@H](CCC(N)=O)NC(=O)[C@H](Cc3c[nH]c4ccccc34)NC1=O)C(=O)N[C@@H](Cc1ccc(OCCN(C)C)cc1)C(=O)N[C@@H](Cc1ccc3ccccc3c1)C(=O)NC(C)(C)C(=O)N[C@H](C(=O)N[C@@H](C)C(=O)NCC(N)=O)CCC(=O)NCCCCC(=O)N2` [compound 32] (Ac-KWQCY(Me2NCH2CH2)[2Nal][Aib]EAG-NH2; linker 1-4-8 via X1): 7.69. The same measure for `CC(=O)N[C@H]1CCCCNC(=O)[C@@H]2CSSC[C@H](NC(=O)[C@H](CCC(N)=O)NC(=O)[C@H](Cc3c[nH]c4ccccc34)NC1=O)C(=O)N[C@@H](Cc1ccc(OCCN(C)C)cc1)C(=O)N[C@@H](Cc1ccc3ccccc3c1)C(=O)NC1(CCOCC1)C(=O)N[C@H](C(=O)N[C@@H](C)C(=O)N[C@H](CC(C)C)C(N)=O)CCC(=O)NCCCCC(=O)N2` [compound 33] (Ac-KWQCY(Me2NCH2CH2)[2Nal][Thp]EA[dL]-NH2; linker 1-4-8 via X1): 7.27; for `CC(=O)N[C@H]1CCCCNC(=O)[C@@H]2CSSC[C@H](NC(=O)[C@H](CCC(N)=O)NC(=O)[C@H](Cc3c[nH]c4ccccc34)NC1=O)C(=O)N[C@@H](Cc1ccc(OCCN)cc1)C(=O)N[C@@H](Cc1ccc3ccccc3c1)C(=O)NC1(CCOCC1)C(=O)N[C@H](C(=O)N[C@@H](C)C(=O)N[C@H](CC(C)C)C(N)=O)CCC(=O)N(C)CCCCC(=O)N2` [compound 34] (Ac-KWQC[AEF][2Nal][Thp]EA[dL]-NH2; linker 1-4-8 via X3): 7.88.
